Results from ChEMBL document CHEMBL1201862, “PubChem BioAssay data set” (2004).
One block for each compound: values may come before it. Activity calls are given as the source filed them.

Key:
[1] = system: HEK293; test: Fluorescence-based counterscreen for potentiators or agonists of NPY-Y2: cell-based high-throughput dose response assay to identify inhibitors of cyclic nucleotide gated ion channel (CNGC) activity. In this assay, the parental HEK293 cell line transfected with a cyclic-nucleotide gated ion channel (CNGC)-based cAMP sensor is used to measure inhibition of isoproterenol-induced CNGC activity by test compound.; assay type: functional; conditions: Homo sapiens;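 also: stimulus is 1 µM isoproterenol at EC100 plus PDE inhibitor Ro 20-1724 at 25 µM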
[2] = target: T1, Neuropeptide Y receptor type 1 (Homo sapiens, UniProt P25929); test: Fluorescence-based counterscreen for agonists of NPY-Y2: cell-based high-throughput dose response assay for agonists of NPY-Y1.; assay type: functional
T1 sequence (P25929 whole entry): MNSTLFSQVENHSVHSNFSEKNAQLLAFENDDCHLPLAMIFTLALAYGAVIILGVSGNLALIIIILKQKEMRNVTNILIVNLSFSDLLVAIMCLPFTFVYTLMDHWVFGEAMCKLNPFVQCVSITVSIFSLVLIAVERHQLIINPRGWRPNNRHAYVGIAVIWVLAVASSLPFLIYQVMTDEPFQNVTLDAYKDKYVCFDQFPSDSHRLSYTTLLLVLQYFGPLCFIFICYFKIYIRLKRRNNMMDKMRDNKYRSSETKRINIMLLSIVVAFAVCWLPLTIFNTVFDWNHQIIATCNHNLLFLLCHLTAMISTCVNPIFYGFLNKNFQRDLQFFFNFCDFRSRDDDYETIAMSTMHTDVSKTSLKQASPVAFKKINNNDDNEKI

[3] = target: T2, Neuropeptide Y receptor type 2 (Homo sapiens, UniProt P49146); test: Fluorescence-based cell-based high-throughput dose response assay for agonists of NPY-Y2. [Related pubchem assays: 1703 (Screening assay (CNGC inhibitors).), 1359 (Screening assay (NPY-Y2 potentiators or agonists).), 1304 (Screening assay (NPY-Y1 potentiators or agonists).), 1710 (Screening assay (NPY-Y2 agonists).), 1791 (Summary AID.)]; assay type: functional
T2 sequence (P49146 whole entry): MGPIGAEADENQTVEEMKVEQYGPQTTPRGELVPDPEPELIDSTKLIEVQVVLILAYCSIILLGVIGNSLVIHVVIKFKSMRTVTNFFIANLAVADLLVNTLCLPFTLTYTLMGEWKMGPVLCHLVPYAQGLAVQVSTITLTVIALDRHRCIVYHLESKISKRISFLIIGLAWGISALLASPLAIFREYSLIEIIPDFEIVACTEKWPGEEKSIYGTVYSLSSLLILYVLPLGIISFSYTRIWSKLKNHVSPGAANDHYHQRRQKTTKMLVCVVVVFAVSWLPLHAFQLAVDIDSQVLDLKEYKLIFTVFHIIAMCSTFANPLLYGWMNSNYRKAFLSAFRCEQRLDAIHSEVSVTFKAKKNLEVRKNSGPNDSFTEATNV

[4] = target: Dual specificity protein phosphatase 3 (Homo sapiens, UniProt P51452); test: VHR1 inhibitor Ki determination, SAR follow-up, biochemical, colorimetric (AID 2004)
[5] = target: Cytochrome P450 2D6 (Homo sapiens, UniProt P10635); test: qHTS Assay for Inhibitors and Substrates of Cytochrome P450 2D6. [Related pubchem assays: 410 ]; assay type: ADME; conditions: read-out: Potency
[6] = target: T3, Alkaline phosphatase, tissue-nonspecific isozyme (Homo sapiens, UniProt P05186)
T3 sequence (P05186 whole entry): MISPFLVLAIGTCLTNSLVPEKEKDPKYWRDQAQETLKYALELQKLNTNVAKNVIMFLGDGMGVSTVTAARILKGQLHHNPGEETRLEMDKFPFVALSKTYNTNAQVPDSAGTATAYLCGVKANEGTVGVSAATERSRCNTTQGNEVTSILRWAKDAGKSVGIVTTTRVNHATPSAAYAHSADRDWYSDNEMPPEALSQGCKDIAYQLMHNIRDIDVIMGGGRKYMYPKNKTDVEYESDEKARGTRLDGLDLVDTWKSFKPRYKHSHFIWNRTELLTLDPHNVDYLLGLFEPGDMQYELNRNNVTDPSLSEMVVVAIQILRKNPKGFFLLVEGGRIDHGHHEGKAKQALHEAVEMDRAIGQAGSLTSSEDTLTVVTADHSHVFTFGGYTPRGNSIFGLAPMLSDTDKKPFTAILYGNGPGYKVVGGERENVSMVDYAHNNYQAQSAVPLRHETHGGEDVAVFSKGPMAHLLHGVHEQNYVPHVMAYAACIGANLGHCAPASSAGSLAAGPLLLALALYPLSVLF

Chain of Cytochrome P450 2D6 (P10635 whole entry): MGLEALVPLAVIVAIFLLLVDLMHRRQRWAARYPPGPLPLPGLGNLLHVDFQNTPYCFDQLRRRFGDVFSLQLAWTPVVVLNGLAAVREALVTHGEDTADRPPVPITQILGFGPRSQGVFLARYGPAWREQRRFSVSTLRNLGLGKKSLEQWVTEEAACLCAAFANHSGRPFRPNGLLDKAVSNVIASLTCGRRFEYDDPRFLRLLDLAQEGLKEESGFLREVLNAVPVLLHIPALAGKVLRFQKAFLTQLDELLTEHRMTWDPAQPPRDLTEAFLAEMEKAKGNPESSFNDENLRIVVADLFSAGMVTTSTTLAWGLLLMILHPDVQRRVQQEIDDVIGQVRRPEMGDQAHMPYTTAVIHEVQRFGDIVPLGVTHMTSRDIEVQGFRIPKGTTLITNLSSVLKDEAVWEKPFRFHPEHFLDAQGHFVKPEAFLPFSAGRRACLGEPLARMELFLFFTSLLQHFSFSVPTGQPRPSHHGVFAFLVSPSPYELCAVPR
Chain of Dual specificity protein phosphatase 3 (P51452 whole entry): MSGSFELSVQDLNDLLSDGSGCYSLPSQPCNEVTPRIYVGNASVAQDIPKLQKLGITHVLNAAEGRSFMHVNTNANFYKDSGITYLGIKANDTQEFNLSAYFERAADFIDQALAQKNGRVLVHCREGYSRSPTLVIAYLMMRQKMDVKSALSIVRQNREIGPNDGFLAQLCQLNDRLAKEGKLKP

Structure (SMILES): Cc1c([N+](=O)[O-])c(C(=O)Sc2ccc(Br)cc2)nn1C
EC50 [1]: > 11.8 µM (not active) | EC50 [2]: > 35.4 µM (not active) | EC50 [3]: > 35.4 µM (not active)

Structure (SMILES): CCOC(=O)c1c(N)sc2c1CCN(Cc1ccccc1)C2 [TINORIDINE]
Ki [4]: 20.5 µM (inactive)

AC50 [5]: 3.98 µM (inconclusive)
Structure (SMILES): CCCCc1nc2c(c3c1CC(C)OC3)CN(CCC(C)C)CC2 (stereo unspecified)

EC50 [6]: > 100 µM (not active)
Structure (SMILES): Cn1c(=O)c2c(nc(N/N=C/c3cccs3)n2Cc2ccc(Br)cc2)n(C)c1=O
